This note sets out measurements from patent publication US8609836B2, “4-aryl-2-anilino-pyrimidines” (Janssen Pharmaceutica NV, priority 2008, dated 2013).

One test concerns the target PLK2 (h) (Homo sapiens, UniProt Q9NYY3). The test is described as follows: PLK2 human kinase inhibition, SPA. Format: biochemical. To be noted: read-out: PLK2 pIC50 (converted). Put shortly: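 33P incorporation into a biotinylated peptide (2 μM) was captured on streptavidin PVT beads and imaged on Leadseeker. Enzyme at 30 μg/ml, ATP 0.1 μM with 2 nM [γ-33P]ATP, Hepes pH 8.0 with MnCl2 and DTT. Incubation was 20 min at room temperature.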

A further test concerns the target PLK1 T210D (h) (Homo sapiens, UniProt P53350, T210D). The test is described as follows: PLK1 human kinase inhibition, SPA. Format: biochemical. To be noted: read-out: PLK1 pIC50 (converted). A digest of the protocol:
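Kinase incubated 40 min at room temperature with 0.1 μM ATP (2 nM [γ-33P]ATP tracer), 2 μM biotinylated peptide, pH 8.0 Hepes buffer with 2 mM MnCl2 and 1 mM DTT; enzyme at 0.125 ng/ml. Stopped with EDTA; 33P-peptide bound to streptavidin scintillant beads and imaged.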

The subject of the next test is HCT-116. Put plainly: Cellular proliferation assay (Alamar blue), HCT-116. Format: cell-based. To be noted: Homo sapiens, 10% FCS, 72 hours with compound, Alamar blue 4 h. A digest of the protocol: (§1)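 After a 24 h compound-free attachment period, cells in 10% FCS medium are treated for 72 h at 37° C. Resazurin conversion is then quantified by fluorescence, with dye incubation lasting 4 h for HCT-116, 6 h for U87-MG and 24 h for A2780 or MDA-MB-231.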
On the technique in general: The colour change of resazurin is a common sign of viable cells or microbes.

The next test concerns A2780. The test is described as follows: Cellular proliferation assay (Alamar blue), A2780. Format: cell-based. The note with it: Homo sapiens, 10% FCS, 72 hours with compound, Alamar blue 24 h, read-out: A2780 (cellular proliferation assay, Table 4) (converted). A digest of the protocol:
as §1

For another test, the system named is U87-MG. Put plainly: Cellular proliferation assay (Alamar blue), U87-MG. Format: cell-based. To be noted: Homo sapiens, U-87 MG; 10% FCS; 72 hours with compound; Alamar blue 6 h; read-out: U87-MG (cellular proliferation assay, Table 4) (converted). Put shortly:
as §1

Another test has as its target GSK3β (h) (Homo sapiens, UniProt P49841). The test is described as follows: GSK-3β human kinase inhibition, SPA. Format: biochemical. To be noted: read-out: GSK3b pIC50 (converted). A digest of the protocol: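 Radiometric: 33P-labelled peptide captured on streptavidin SPA beads after EDTA stop and imaged on Leadseeker. Reaction ran 1 h at RT, 1 μM cold ATP with 2 nM [γ-33P]ATP, 1 μM biotin-peptide substrate, human GSK3β 1 μg/ml, pH 7.4 Tris buffer.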

The next test has as its target CDK1/CyclinB (h) (Homo sapiens, UniProt P06493). Put plainly: CDK1/CyclinB human kinase inhibition, Invitrogen's FRET assay (Z'lyte). Format: biochemical. To be noted: read-out: CDK1 pIC50 (converted). Put shortly:
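Read-out is the 460 nm/538 nm emission ratio (390 nm excitation) after a 60 min protease development step. Before that, 10 μM ATP and 2 μM Z'lyte Ser/Thr peptide 12 react 60 min at room temperature with 0.2 μg/ml human CDK1/CyclinB in Hepes pH 7.5 containing MgCl2, EGTA and Brij-35.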

A further test relates to MDA-MB-231. Put plainly: Cellular proliferation assay (Alamar blue), MDA-MB-231. Format: cell-based. The note with it: Homo sapiens, 10% FCS, 72 hours with compound, Alamar blue 24 h, read-out: MDA/MB231 (cellular proliferation assay, Table 4) (converted). Put shortly: as §1
The next test deals with PLK4 (h) (Homo sapiens, UniProt O00444). Put plainly: PLK-4 human kinase inhibition, scintillation proximity assay (SPA). Format: biochemical. The note with it: read-out: PLK4 pIC50 (converted).
Sequence of PLK4 (h) (O00444 whole entry): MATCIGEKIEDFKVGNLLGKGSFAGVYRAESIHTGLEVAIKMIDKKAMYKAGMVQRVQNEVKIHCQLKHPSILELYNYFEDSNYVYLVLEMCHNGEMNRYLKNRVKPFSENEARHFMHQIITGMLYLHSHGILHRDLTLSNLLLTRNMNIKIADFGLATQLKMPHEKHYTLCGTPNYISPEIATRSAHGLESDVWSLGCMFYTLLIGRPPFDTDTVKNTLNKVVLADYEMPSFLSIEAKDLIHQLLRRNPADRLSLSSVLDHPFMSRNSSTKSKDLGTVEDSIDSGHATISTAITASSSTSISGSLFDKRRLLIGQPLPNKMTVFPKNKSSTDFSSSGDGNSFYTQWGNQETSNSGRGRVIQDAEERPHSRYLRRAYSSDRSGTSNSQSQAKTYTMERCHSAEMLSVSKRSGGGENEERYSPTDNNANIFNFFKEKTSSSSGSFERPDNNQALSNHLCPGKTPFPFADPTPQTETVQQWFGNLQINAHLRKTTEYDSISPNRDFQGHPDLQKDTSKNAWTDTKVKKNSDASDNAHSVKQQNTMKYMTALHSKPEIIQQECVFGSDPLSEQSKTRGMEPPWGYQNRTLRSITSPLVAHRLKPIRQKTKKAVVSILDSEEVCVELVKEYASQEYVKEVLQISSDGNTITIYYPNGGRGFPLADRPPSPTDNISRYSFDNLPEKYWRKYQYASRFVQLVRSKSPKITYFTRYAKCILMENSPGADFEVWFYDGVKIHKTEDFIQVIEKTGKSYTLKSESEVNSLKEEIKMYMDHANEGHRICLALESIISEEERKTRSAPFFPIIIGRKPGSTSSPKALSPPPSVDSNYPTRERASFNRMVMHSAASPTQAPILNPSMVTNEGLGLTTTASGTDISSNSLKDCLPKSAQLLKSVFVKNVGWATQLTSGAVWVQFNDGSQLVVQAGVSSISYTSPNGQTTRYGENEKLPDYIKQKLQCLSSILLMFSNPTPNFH

Sequence of CDK1/CyclinB (h) (P06493 whole entry): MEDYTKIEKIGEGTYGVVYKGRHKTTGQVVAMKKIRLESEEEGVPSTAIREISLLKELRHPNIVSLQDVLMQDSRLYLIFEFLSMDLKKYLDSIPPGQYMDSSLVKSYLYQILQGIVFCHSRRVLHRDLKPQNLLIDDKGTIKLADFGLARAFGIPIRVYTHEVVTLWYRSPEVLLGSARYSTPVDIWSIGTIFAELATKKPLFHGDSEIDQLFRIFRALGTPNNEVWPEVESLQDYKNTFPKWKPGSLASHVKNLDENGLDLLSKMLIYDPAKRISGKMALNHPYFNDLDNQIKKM
Sequence of CDK1/CyclinB (h) (P14635 whole entry partner): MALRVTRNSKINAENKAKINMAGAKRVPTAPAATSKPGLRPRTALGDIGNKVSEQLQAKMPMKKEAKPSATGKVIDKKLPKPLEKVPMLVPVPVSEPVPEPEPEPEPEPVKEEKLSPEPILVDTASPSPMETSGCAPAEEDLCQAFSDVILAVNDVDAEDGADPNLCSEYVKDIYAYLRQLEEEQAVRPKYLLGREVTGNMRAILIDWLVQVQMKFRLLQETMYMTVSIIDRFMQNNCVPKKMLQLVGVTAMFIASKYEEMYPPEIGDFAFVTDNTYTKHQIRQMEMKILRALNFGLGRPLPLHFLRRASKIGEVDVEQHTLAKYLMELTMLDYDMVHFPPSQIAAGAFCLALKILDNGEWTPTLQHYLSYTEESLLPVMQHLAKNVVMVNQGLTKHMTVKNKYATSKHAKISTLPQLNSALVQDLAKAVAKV
Sequence of PLK2 (h) (Q9NYY3 whole entry): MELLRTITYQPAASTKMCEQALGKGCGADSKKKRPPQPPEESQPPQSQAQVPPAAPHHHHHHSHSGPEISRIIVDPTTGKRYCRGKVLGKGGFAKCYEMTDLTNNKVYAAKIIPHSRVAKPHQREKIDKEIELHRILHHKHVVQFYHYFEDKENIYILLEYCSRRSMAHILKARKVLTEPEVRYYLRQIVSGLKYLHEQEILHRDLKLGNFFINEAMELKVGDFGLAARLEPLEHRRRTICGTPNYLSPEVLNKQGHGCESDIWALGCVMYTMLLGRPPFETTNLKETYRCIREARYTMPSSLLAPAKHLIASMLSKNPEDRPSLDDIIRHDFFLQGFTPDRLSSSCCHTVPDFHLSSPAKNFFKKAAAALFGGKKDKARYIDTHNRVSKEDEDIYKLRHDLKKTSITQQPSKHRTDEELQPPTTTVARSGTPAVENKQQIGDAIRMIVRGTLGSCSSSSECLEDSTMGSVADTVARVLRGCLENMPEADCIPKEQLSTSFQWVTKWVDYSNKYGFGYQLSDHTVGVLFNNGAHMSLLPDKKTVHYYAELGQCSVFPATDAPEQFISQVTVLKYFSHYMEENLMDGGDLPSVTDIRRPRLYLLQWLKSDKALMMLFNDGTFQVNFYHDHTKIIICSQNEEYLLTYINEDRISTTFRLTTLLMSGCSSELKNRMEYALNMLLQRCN
Sequence of PLK1 T210D (h) (P53350 whole entry T210D): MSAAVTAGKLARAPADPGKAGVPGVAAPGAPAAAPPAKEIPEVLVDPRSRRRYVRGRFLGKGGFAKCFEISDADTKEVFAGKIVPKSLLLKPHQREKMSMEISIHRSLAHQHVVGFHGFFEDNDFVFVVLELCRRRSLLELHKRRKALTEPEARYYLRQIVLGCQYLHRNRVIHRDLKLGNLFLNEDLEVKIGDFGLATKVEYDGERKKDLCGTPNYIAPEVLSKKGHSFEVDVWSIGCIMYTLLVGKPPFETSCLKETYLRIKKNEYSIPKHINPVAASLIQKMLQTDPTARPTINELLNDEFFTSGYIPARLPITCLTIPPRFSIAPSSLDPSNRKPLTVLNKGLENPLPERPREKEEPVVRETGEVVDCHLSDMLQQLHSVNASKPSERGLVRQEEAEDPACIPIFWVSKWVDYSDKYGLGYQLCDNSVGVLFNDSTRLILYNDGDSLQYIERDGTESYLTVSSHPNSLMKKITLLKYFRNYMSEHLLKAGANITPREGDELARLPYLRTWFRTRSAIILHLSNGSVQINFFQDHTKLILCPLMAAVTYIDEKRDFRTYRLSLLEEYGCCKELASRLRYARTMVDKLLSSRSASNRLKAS
Sequence of GSK3β (h) (P49841 whole entry): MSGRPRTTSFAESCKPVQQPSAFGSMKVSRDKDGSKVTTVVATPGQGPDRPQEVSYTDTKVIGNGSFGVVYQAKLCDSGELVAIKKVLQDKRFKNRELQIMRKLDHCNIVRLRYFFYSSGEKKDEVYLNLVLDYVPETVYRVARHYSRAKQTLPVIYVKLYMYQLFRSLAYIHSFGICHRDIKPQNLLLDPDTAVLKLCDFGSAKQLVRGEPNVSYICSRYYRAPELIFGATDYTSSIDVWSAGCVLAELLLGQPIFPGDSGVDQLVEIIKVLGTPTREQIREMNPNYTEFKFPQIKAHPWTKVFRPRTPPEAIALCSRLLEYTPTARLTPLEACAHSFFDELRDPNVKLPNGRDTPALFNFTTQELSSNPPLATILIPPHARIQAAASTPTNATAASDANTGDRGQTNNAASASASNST

`COc1cc2cc(c1)Nc1nccc(n1)-c1ccc(OC)c(c1)CN(C)CCNC(=O)[C@@H]1CCCN1C2` [Compound 162]: the IC50 is above 3.02 µM at PLK2 (h); above 10 µM at PLK1 T210D (h); above 10 µM with HCT-116; above 10 µM in the test on A2780; above 10 µM with U87-MG; 8.32 µM at GSK3β (h). Also, the IC50 at CDK1/CyclinB (h) is above 10 µM; with MDA-MB-231, above 10 µM; on PLK4 (h), 2.04 µM.

For `CN1CCNC(=O)[C@@H]2CCCN2Cc2cc(cc(N3CCOCC3)c2)Nc2nccc(n2)-c2ccc(cc2)C1` [Compound 154], the IC50 on PLK2 (h) is above 3.02 µM; at PLK1 T210D (h), above 10 µM; in the test on HCT-116 it was above 10 µM; in the test with A2780 it was above 10 µM; with U87-MG, above 10 µM; at GSK3β (h) it was above 10 µM. Also, the IC50 on CDK1/CyclinB (h) was above 10 µM; in the test with MDA-MB-231, above 10 µM; at PLK4 (h), 0.813 µM.

As to `COc1ccc2cc1CN(C)CCCNC(=O)[C@H](CO)NCc1cccc(c1)Nc1nccc-2n1` [Compound 118], the IC50 at PLK2 (h) is above 3.02 µM; at PLK1 T210D (h), above 10 µM; in the test on HCT-116 it was above 10 µM; in the test on A2780, above 10 µM; in the test on U87-MG, above 10 µM; on GSK3β (h) it was above 10 µM. Moreover, the IC50 on CDK1/CyclinB (h) was above 10 µM; in the test on MDA-MB-231 it was above 10 µM; at PLK4 (h), 3.24 µM.

On to `COc1ccc2cc1CN(C)CCNC(=O)[C@@H]1CCCN1Cc1cc(NCCc3ccccc3)cc(c1)Nc1nccc-2n1` [Compound 163], for which the IC50 on PLK2 (h) was above 10 µM; at PLK1 T210D (h), above 10 µM; with HCT-116, 4.17 µM; in the test with A2780, 6.61 µM; in the test on U87-MG, 6.92 µM; at GSK3β (h), above 10 µM. Besides, the IC50 at CDK1/CyclinB (h) was above 10 µM; in the test with MDA-MB-231 it was above 10 µM; at PLK4 (h), 2.45 µM.

Turning to `COc1ccc2cc1CN(C)CCNC(=O)[C@@H]1CCCN1Cc1cc(cc(N3CCOCC3)c1)Nc1nccc-2n1` [Compound 152], the IC50 on PLK2 (h) is above 10 µM; at PLK1 T210D (h) it was above 10 µM; with HCT-116, above 10 µM; in the test with A2780 it was above 10 µM; in the test on U87-MG, above 10 µM; on GSK3β (h), 5.13 µM. Also, the IC50 on CDK1/CyclinB (h) was above 10 µM; with MDA-MB-231 it was above 10 µM; on PLK4 (h), 0.692 µM.

Take `O=C1CN2CCN(CC2)Cc2cc(ccc2N2CCOCC2)Nc2nccc(n2)-c2ccc(cc2)CN1` [Compound 194]: the IC50 at PLK2 (h) is above 10 µM; on PLK1 T210D (h), above 10 µM; in the test with HCT-116, above 10 µM; with A2780, above 10 µM; with U87-MG it was above 10 µM; at GSK3β (h), 6.03 µM. The IC50 is above 10 µM at CDK1/CyclinB (h), above 10 µM in the test on MDA-MB-231 and 1.12 µM on PLK4 (h).

In the case of `O=C1NCc2ccc(cc2)-c2ccnc(n2)Nc2ccc(N3CCOCC3)c(c2)CN2CCC[C@@H]12` [Compound 49], the IC50 on PLK2 (h) was above 10 µM; on PLK1 T210D (h), above 10 µM; in the test on HCT-116, above 10 µM; in the test with A2780, 4.07 µM; in the test on U87-MG it was 1.74 µM; on GSK3β (h) it was above 10 µM. Further, the IC50 on CDK1/CyclinB (h) is above 10 µM; in the test on MDA-MB-231, above 10 µM; at PLK4 (h), 5.89 µM.

As to `COc1cc2cc(c1)Nc1nccc(n1)-c1ccc(cc1)CN(C)CCCNC(=O)[C@@H]1CCCN1C2` [Compound 156], the IC50 at PLK2 (h) is above 3.02 µM; on PLK1 T210D (h), above 10 µM; in the test on HCT-116, above 10 µM; in the test on A2780, above 10 µM; in the test with U87-MG, above 10 µM; at GSK3β (h) it was above 10 µM. In addition, the values for the IC50 at CDK1/CyclinB (h), with MDA-MB-231 and on PLK4 (h) were above 10 µM, above 10 µM and 0.912 µM, respectively.

As to `O=C1NCc2cccc(c2)-c2ccnc(n2)Nc2ccc(N3CCOCC3)c(c2)CN2C[C@@H](O)C[C@@H]12` [Compound 27], the IC50 on PLK2 (h) was above 10 µM; at PLK1 T210D (h), above 10 µM; with HCT-116, 0.891 µM; in the test on A2780 it was 0.661 µM; in the test on U87-MG it was 5.37 µM; at GSK3β (h) it was 0.141 µM. Moreover, the IC50 was 1.91 µM on CDK1/CyclinB (h), 3.8 µM in the test on MDA-MB-231 and 0.11 µM on PLK4 (h).

For the compound `CN1CCN(C(=O)c2cc3cc(c2)Nc2nccc(n2)-c2cccc(c2)CNC(=O)[C@@H]2CCCN2C3)CC1` [Compound 34], the IC50 on PLK2 (h) is above 10 µM; at PLK1 T210D (h), above 10 µM; with HCT-116, 5.89 µM; in the test on A2780, above 10 µM; in the test with U87-MG, 8.71 µM; at GSK3β (h), 0.525 µM. Moreover, the results for the IC50 on CDK1/CyclinB (h), in the test on MDA-MB-231 and at PLK4 (h) were 1.23 µM, above 10 µM and 0.186 µM, respectively.

Regarding `C[C@@H]1NCc2cc(ccc2N2CCOCC2)Nc2nccc(n2)-c2cccc(c2)CNC1=O` [Compound 182], the IC50 at PLK2 (h) is above 10 µM; on PLK1 T210D (h), above 10 µM; in the test with HCT-116, above 10 µM; with A2780 it was above 10 µM; in the test with U87-MG, above 10 µM; on GSK3β (h), 0.661 µM. In addition, the IC50 on CDK1/CyclinB (h) was 7.59 µM; in the test with MDA-MB-231 it was above 10 µM; at PLK4 (h), 0.692 µM.

On to `O=C1NCc2ccc(cc2)-c2ccnc(n2)Nc2ccc(N3CCOCC3)c(c2)CN2C[C@H](O)C[C@@H]12` [Compound 56], for which the IC50 at PLK2 (h), on PLK1 T210D (h), in the test with HCT-116, with A2780, in the test with U87-MG and at GSK3β (h) was above 10 µM throughout. Further, the IC50 is above 10 µM at CDK1/CyclinB (h), above 10 µM in the test with MDA-MB-231 and around 10 µM on PLK4 (h).

Turning to `O=C1NCc2cccc(c2)-c2ccnc(n2)Nc2cc(ccc2Cl)CN2CCC[C@@H]12` [Compound 51], the IC50 at PLK2 (h), at PLK1 T210D (h), with HCT-116, in the test on A2780, in the test on U87-MG and at GSK3β (h) was above 10 µM in each case. The IC50 at CDK1/CyclinB (h), in the test with MDA-MB-231 and on PLK4 (h) was above 10 µM in each case.

As to `O=C1NCc2ccc(cc2)-c2ccnc(n2)Nc2ccc(N3CCOCC3)c(c2)CN2CCC1CC2` [Compound 12], the IC50 at PLK2 (h) was above 10 µM; at PLK1 T210D (h), above 10 µM; in the test on HCT-116 it was 3.8 µM; in the test with A2780 it was 1.74 µM; in the test on U87-MG it was 0.955 µM; at GSK3β (h), around 10.5 µM. For the same compound, the IC50 on CDK1/CyclinB (h) was above 10 µM; in the test on MDA-MB-231 it was 9.33 µM; on PLK4 (h) it was 0.49 µM.

On to `COc1cc2cc(c1)Nc1nccc(n1)-c1ccc(OC)c(c1)CN(C)CCCNC(=O)[C@@H]1CCCN1C2` [Compound 171], for which the IC50 at PLK2 (h) was above 10 µM; at PLK1 T210D (h) it was above 10 µM; with HCT-116, 6.61 µM; with A2780, above 10 µM; in the test on U87-MG it was 6.17 µM; on GSK3β (h), above 10 µM. Also, the IC50 at CDK1/CyclinB (h) is above 10 µM; in the test with MDA-MB-231, above 10 µM; on PLK4 (h), 5.01 µM.

In the case of `COc1cc2cc(c1)Nc1nccc(n1)-c1ccc(cc1)CN(C)CCNC(=O)C1CCN(CC1)C2` [Compound 62], the IC50 on PLK2 (h) is above 10 µM; at PLK1 T210D (h), above 10 µM; with HCT-116, 2.75 µM; in the test with A2780, 5.89 µM; with U87-MG, 6.92 µM; on GSK3β (h), 1.91 µM. The IC50 on CDK1/CyclinB (h) is above 10 µM; in the test on MDA-MB-231 it was 9.12 µM; on PLK4 (h) it was 0.871 µM.
